Experimental data from ChEMBL document CHEMBL4507287, “Data for DCP probe MRL-650” (2021).

How the values were obtained:
[1] = target: Cyclin-dependent kinase-like 1 (Homo sapiens) (UniProt Q00532); conditions: Compound concentration 1000.0 nM
[2] = target: Phosphatidylinositol 3-kinase catalytic subunit type 3 (Homo sapiens) (UniProt Q8NEB9); conditions: Compound concentration 1000.0 nM
[3] = test system: Epidermal growth factor receptor (Homo sapiens), P00533 [UNDEFINED MUTATION]; conditions: Compound concentration 1000.0 nM
Chain of Epidermal growth factor receptor (Homo sapiens), P00533 [UNDEFINED MUTATION] (P00533 whole entry, looked up, stated change not applied): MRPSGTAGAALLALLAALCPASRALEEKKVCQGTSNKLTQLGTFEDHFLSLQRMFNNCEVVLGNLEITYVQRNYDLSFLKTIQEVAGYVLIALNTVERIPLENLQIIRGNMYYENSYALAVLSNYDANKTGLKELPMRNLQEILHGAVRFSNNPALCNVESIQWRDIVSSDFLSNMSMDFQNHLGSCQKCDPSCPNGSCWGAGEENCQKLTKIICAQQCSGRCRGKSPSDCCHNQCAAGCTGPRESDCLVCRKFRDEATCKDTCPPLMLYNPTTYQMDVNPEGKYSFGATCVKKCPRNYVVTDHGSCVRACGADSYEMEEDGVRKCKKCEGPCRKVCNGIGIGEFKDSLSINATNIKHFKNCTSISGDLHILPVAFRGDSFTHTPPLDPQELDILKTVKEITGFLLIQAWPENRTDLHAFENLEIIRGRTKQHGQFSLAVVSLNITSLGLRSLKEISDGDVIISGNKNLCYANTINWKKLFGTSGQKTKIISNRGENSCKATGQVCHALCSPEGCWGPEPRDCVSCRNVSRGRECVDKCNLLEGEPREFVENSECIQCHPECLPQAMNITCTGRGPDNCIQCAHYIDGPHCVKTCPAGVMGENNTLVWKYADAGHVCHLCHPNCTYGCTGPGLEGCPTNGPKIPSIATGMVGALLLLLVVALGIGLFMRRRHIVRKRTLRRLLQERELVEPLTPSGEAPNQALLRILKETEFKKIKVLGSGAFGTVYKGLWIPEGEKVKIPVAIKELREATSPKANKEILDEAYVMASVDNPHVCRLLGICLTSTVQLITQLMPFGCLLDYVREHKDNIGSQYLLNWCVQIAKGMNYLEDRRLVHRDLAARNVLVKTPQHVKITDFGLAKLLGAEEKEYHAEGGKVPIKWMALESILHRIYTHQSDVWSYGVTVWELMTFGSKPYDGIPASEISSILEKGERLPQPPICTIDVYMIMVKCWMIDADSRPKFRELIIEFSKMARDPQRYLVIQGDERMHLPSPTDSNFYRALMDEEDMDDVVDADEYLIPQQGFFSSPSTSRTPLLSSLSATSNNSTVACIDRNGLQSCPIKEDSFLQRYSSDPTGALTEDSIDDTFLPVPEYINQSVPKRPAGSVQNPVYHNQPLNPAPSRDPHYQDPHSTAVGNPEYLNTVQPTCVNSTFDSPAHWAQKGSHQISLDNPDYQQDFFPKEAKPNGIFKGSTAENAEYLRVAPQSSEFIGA

[4] = test system: Receptor-type tyrosine-protein kinase FLT3 (Homo sapiens), P36888 [D835V]; conditions: Compound concentration 1000.0 nM
[5] = test system: eIF-2-alpha kinase GCN2 (Homo sapiens), Q9P2K8 [S808G]; conditions: Compound concentration 1000.0 nM
[6] = target: Dual specificity mitogen-activated protein kinase kinase 2 (Homo sapiens) (UniProt P36507); conditions: Compound concentration 1000.0 nM
Chain of Dual specificity mitogen-activated protein kinase kinase 2 (Homo sapiens) (P36507 whole entry): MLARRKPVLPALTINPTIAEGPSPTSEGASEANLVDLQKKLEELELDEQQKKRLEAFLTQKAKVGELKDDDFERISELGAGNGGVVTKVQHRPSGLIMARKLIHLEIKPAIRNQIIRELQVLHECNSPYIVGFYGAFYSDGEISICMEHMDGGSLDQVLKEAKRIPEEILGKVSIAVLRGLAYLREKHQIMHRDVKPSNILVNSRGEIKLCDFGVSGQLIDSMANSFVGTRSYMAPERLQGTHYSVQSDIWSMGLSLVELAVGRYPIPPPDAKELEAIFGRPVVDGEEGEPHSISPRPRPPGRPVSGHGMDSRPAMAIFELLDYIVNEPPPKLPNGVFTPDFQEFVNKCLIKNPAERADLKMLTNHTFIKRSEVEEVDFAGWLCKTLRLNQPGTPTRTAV

[7] = target: Muscarinic acetylcholine receptor M1 (Homo sapiens) (UniProt P11229); conditions: Compound concentration 10.0 uM
[8] = target: Serine/threonine-protein kinase ULK3 (Homo sapiens) (UniProt Q6PHR2); conditions: Compound concentration 1000.0 nM
[9] = target: D(2) dopamine receptor (Homo sapiens) (UniProt P14416); conditions: Compound concentration 10.0 uM
Chain of D(2) dopamine receptor (Homo sapiens) (P14416 whole entry): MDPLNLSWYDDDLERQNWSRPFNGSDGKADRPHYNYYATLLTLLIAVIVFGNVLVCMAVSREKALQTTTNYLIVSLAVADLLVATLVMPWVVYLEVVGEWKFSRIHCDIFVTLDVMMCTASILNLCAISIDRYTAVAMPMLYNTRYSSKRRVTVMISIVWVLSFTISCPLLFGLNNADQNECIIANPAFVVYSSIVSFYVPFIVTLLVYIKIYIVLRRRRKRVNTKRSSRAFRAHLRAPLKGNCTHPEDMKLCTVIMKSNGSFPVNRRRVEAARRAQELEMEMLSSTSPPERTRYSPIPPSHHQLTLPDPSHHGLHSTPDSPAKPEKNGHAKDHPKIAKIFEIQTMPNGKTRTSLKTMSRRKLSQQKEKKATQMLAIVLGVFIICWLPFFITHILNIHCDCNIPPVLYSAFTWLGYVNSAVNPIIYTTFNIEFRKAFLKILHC

[10] = target: Dual specificity protein kinase CLK3 (Homo sapiens) (UniProt P49761); conditions: Compound concentration 1000.0 nM
[11] = target: Ephrin type-A receptor 8 (Homo sapiens) (UniProt P29322); conditions: Compound concentration 1000.0 nM
[12] = target: Serine/threonine-protein kinase SIK2 (Homo sapiens) (UniProt Q9H0K1); conditions: Compound concentration 1000.0 nM
[13] = target: Serine/threonine-protein kinase 24 (Homo sapiens) (UniProt Q9Y6E0); conditions: Compound concentration 1000.0 nM
Chain of Serine/threonine-protein kinase 24 (Homo sapiens) (Q9Y6E0 whole entry, looked up): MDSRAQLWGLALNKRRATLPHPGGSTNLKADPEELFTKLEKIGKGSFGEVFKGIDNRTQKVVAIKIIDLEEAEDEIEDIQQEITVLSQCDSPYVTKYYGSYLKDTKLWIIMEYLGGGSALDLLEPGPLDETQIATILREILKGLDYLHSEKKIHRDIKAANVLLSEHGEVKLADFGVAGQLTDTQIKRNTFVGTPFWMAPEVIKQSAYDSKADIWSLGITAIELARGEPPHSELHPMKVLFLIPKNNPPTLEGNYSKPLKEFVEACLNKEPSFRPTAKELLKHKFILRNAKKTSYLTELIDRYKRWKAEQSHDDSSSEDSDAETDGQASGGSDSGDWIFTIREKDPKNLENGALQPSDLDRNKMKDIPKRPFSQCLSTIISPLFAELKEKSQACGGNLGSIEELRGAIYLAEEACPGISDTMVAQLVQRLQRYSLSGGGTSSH

[14] = target: cGMP-dependent protein kinase 2 (Homo sapiens) (UniProt Q13237); conditions: Compound concentration 1000.0 nM
[15] = target: Tyrosine-protein kinase Fyn (Homo sapiens) (UniProt P06241); conditions: Compound concentration 1000.0 nM
[16] = target: Casein kinase I isoform alpha (Homo sapiens) (UniProt P48729); conditions: Compound concentration 1000.0 nM
[17] = target: RAC-beta serine/threonine-protein kinase (Homo sapiens) (UniProt P31751); conditions: Compound concentration 1000.0 nM
[18] = target: Ribosomal protein S6 kinase alpha-5 (Homo sapiens) (UniProt O75582); conditions: Compound concentration 1000.0 nM
[19] = target: Casein kinase I isoform alpha-like (Homo sapiens) (UniProt Q8N752); conditions: Compound concentration 1000.0 nM
[20] = target: Inhibitor of nuclear factor kappa-B kinase subunit alpha (Homo sapiens) (UniProt O15111); conditions: Compound concentration 1000.0 nM
[21] = target: Ribosomal protein S6 kinase alpha-6 (Homo sapiens) (UniProt Q9UK32); conditions: Compound concentration 1000.0 nM
[22] = target: Dual specificity tyrosine-phosphorylation-regulated kinase 1A (Homo sapiens) (UniProt Q13627); conditions: Compound concentration 1000.0 nM
[23] = target: Serine/threonine-protein kinase NLK (Homo sapiens) (UniProt Q9UBE8); conditions: Compound concentration 1000.0 nM
[24] = target: Tyrosine-protein kinase SYK (Homo sapiens) (UniProt P43405); conditions: Compound concentration 1000.0 nM
[25] = target: Mitogen-activated protein kinase kinase kinase kinase 3 (Homo sapiens) (UniProt Q8IVH8); conditions: Compound concentration 1000.0 nM
[26] = target: Serine/threonine-protein kinase D3 (Homo sapiens) (UniProt O94806); conditions: Compound concentration 1000.0 nM
Chain of Serine/threonine-protein kinase D3 (Homo sapiens) (O94806 whole entry): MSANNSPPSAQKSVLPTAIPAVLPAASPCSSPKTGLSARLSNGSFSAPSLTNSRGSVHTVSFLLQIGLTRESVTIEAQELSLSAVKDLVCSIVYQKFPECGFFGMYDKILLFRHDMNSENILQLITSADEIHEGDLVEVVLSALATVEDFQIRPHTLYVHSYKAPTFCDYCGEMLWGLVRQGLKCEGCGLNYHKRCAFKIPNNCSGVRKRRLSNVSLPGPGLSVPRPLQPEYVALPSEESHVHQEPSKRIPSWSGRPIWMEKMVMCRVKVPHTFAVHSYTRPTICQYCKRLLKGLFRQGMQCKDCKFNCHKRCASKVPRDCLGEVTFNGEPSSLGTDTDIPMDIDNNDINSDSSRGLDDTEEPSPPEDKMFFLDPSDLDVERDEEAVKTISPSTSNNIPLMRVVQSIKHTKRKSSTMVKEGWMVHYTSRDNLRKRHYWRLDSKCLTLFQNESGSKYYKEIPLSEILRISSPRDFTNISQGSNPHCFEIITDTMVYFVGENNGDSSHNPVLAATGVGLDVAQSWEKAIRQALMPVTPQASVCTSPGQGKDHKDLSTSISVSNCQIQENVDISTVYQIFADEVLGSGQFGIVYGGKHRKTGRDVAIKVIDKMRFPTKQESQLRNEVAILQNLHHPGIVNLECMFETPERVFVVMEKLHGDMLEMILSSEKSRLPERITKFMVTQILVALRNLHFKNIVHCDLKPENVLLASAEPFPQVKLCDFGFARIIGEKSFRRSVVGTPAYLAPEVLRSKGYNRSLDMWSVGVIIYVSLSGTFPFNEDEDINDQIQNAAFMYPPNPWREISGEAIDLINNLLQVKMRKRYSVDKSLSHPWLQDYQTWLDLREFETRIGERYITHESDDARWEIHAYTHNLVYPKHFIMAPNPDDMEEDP

[27] = target: Proto-oncogene tyrosine-protein kinase receptor Ret (Homo sapiens) (UniProt P07949); conditions: Compound concentration 1000.0 nM
[28] = target: Hepatocyte growth factor receptor (Homo sapiens) (UniProt P08581); conditions: Compound concentration 1000.0 nM
[29] = target: Serine/threonine-protein kinase RIO1 (Homo sapiens) (UniProt Q9BRS2); conditions: Compound concentration 1000.0 nM
Chain of Serine/threonine-protein kinase RIO1 (Homo sapiens) (Q9BRS2 whole entry): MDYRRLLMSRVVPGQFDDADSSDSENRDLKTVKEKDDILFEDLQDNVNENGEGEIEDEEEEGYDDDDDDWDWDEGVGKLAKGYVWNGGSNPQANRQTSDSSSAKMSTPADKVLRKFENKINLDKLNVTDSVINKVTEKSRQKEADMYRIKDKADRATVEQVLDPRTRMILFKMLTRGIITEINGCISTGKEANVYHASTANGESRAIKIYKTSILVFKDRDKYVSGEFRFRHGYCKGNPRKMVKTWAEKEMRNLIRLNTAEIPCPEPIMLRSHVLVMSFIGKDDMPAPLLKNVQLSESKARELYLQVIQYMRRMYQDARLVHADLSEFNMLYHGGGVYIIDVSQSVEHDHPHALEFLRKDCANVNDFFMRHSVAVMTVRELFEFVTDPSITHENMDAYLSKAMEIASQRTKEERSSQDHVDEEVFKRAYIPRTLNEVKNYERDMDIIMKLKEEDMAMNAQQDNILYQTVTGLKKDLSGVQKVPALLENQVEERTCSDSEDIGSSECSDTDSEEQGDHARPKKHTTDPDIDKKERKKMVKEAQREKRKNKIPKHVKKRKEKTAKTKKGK

[30] = target: Ribosomal protein S6 kinase alpha-3 (Homo sapiens) (UniProt P51812); conditions: Compound concentration 1000.0 nM
[31] = target: Serine/threonine-protein kinase PAK 6 (Homo sapiens) (UniProt Q9NQU5); conditions: Compound concentration 1000.0 nM
[32] = target: Serine/threonine-protein kinase 17B (Homo sapiens) (UniProt O94768); conditions: Compound concentration 1000.0 nM
[33] = target: Serine/threonine-protein kinase Nek11 (Homo sapiens) (UniProt Q8NG66); conditions: Compound concentration 1000.0 nM
[34] = target: Interferon-induced, double-stranded RNA-activated protein kinase (Homo sapiens) (UniProt P19525); conditions: Compound concentration 1000.0 nM
[35] = target: Serine/threonine-protein kinase 38-like (Homo sapiens) (UniProt Q9Y2H1); conditions: Compound concentration 1000.0 nM
[36] = target: Protein kinase C delta type (Homo sapiens) (UniProt Q05655); conditions: Compound concentration 1000.0 nM
[37] = target: Protein-tyrosine kinase 6 (Homo sapiens) (UniProt Q13882); conditions: Compound concentration 1000.0 nM
[38] = target: Serine/threonine-protein kinase N1 (Homo sapiens) (UniProt Q16512); conditions: Compound concentration 1000.0 nM
[39] = target: Activin receptor type-2A (Homo sapiens) (UniProt P27037); conditions: Compound concentration 1000.0 nM
[40] = test system: Mast/stem cell growth factor receptor Kit (Homo sapiens), P10721 [A829P]; conditions: Compound concentration 1000.0 nM
[41] = target: Activin receptor type-2B (Homo sapiens) (UniProt Q13705); conditions: Compound concentration 1000.0 nM
[42] = target: Serine/threonine-protein kinase 38 (Homo sapiens) (UniProt Q15208); conditions: Compound concentration 1000.0 nM
[43] = target: Ephrin type-A receptor 4 (Homo sapiens) (UniProt P54764); conditions: Compound concentration 1000.0 nM
Chain of Ephrin type-A receptor 4 (Homo sapiens) (P54764 whole entry): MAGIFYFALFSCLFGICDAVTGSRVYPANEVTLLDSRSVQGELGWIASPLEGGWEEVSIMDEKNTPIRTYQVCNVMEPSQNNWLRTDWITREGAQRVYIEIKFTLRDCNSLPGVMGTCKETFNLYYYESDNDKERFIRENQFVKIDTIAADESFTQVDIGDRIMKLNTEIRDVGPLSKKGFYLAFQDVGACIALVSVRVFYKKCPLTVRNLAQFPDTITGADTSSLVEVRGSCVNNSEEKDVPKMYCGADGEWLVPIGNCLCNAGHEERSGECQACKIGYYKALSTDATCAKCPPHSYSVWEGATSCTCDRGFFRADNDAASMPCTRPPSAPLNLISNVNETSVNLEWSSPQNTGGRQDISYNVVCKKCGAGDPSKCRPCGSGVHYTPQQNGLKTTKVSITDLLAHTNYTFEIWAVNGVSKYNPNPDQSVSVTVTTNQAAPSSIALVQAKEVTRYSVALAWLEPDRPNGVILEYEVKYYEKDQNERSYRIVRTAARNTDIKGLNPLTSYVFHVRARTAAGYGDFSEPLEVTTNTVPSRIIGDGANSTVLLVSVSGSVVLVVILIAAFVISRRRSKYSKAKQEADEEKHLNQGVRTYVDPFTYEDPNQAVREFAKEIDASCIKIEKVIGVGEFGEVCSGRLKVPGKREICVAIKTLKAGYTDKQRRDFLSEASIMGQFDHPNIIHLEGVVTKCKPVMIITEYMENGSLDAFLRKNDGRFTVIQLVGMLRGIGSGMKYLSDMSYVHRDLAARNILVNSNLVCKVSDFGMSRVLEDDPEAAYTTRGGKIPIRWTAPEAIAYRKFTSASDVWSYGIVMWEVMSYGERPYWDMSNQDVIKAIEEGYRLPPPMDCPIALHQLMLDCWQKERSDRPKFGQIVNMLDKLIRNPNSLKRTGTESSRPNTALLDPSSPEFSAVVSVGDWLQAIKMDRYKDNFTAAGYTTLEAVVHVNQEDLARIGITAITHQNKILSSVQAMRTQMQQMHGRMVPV

[44] = target: Mitogen-activated protein kinase kinase kinase 14 (Homo sapiens) (UniProt Q99558); conditions: Compound concentration 1000.0 nM
[45] = target: Tyrosine-protein kinase ZAP-70 (Homo sapiens) (UniProt P43403); conditions: Compound concentration 1000.0 nM

Work on CC(=O)Nc1c(C(C)=O)c(=O)n(C)c2nc(-c3ccc(Cl)cc3Cl)c(-c3ccc(Cl)cc3)cc12 [NAPHTHYRIDINONE] yielded a residual activity [1] of 100%, a residual activity [2] of 100% and a residual activity [3] of 100%. For the same compound, the residual activity [4] was 82%, the residual activity [5] was 48% and the residual activity [6] was 100%. The inhibition [7] was -3.7%, the residual activity [8] was 75% and the inhibition [9] was 5.73%. The residual activity [10] was 100%, the residual activity [11] was 100% and the residual activity [12] was 100%. For the same compound, the residual activity [13] was 100%, the residual activity [14] was 100% and the residual activity [15] was 100%. The residual activity [16] was 100%, the residual activity [17] was 100% and the residual activity [18] was 86%. It also gave a residual activity [19] of 100%, a residual activity [20] of 100% and a residual activity [21] of 100%. For the same compound, the residual activity [22] was 100%, the residual activity [23] was 100% and the residual activity [24] was 96%. For the same compound, the residual activity [25] was 100%, the residual activity [26] was 100% and the residual activity [27] was 100%. For the same compound, the residual activity [28] was 100%, the residual activity [29] was 100% and the residual activity [30] was 99%. It also gave a residual activity [31] of 100%, a residual activity [32] of 100% and a residual activity [33] of 100%. It also gave a residual activity [34] of 100%, a residual activity [35] of 87% and a residual activity [36] of 100%. For the same compound, the residual activity [37] was 100%, the residual activity [38] was 92% and the residual activity [39] was 100%. For the same compound, the residual activity [40] was 100%, the residual activity [41] was 100% and the residual activity [42] was 93%. For the same compound, the residual activity [43] was 96%, the residual activity [44] was 92% and the residual activity [45] was 100%.

CC(=O)c1c(NS(C)(=O)=O)c2cc(-c3ccc(Cl)cc3)c(-c3ccc(Cl)cc3Cl)nc2n(C)c1=O [MRL-CB1-NC] gave a residual activity [1] of 91%, a residual activity [2] of 93% and a residual activity [3] of 100%. The residual activity [4] was 89%, the residual activity [5] was 100% and the residual activity [6] was 100%. For the same compound, the inhibition [7] was 3.28%, the residual activity [8] was 80% and the inhibition [9] was 2.43%. The residual activity [10] was 92%, the residual activity [11] was 97% and the residual activity [12] was 100%. The residual activity [13] was 97%, the residual activity [14] was 100% and the residual activity [15] was 92%. The residual activity [16] was 100%, the residual activity [17] was 100% and the residual activity [18] was 72%. For the same compound, the residual activity [19] was 100%, the residual activity [20] was 100% and the residual activity [21] was 90%. For the same compound, the residual activity [22] was 77%, the residual activity [23] was 72% and the residual activity [24] was 100%. The residual activity [25] was 99%, the residual activity [26] was 100% and the residual activity [27] was 93%. For the same compound, the residual activity [28] was 100%, the residual activity [29] was 100% and the residual activity [30] was 100%. For the same compound, the residual activity [31] was 100%, the residual activity [32] was 100% and the residual activity [33] was 79%. The residual activity [34] was 100%, the residual activity [35] was 76% and the residual activity [36] was 98%. For the same compound, the residual activity [37] was 100%, the residual activity [38] was 100% and the residual activity [39] was 100%. It also gave a residual activity [40] of 96%, a residual activity [41] of 100% and a residual activity [42] of 77%. For the same compound, the residual activity [43] was 98%, the residual activity [44] was 63% and the residual activity [45] was 100%.
